This passage reports IC50 results from patent publication US11319299B2, “Substituted carboxamides as inhibitors of WDR5 protein-protein binding” (PROPELLON THERAPEUTICS INC., priority 2016, dated 2022).

Broadly, the IC50 is the concentration at which inhibition is half-maximal.

This test concerns MV4-11 cells. In words: Cell proliferation assay (ATPlite). The test is classed as cell-based. Conditions: Homo sapiens, MV4-11, 120 h; MV-411 cells, five days; read-out: In vitro whole cell potency in MV-411 cells, (IC50). On the procedure: (iv) Cell Proliferation Assay
MV4-11 cells were seeded into a 96-well plate at 1,000 cells/well in 150 μl medium (Alpha-MEM containing 10% FBS, 100 μg/ml Normocin, and 50 μg/ml Gentamycin, Invitrogen). A HP D300 digital dispenser was used to dose cells with DMSO or test compounds across a 10-point range of concentrations (high dose of 10 μM), and cultures were grown in a humidified 5% CO2 incubator at 37° C. After five days, plates were removed from the incubator and equilibrated to room temperature. An equal volume of ATPlite assay reagent was added to each well, and samples were processed according to manufacturer's instructions (Perkin Elmer). Luminescent signal was measured using an Envision plate reader equipped with a US-Luminescence detector.
Consider `CN1CCN(c2cc(F)c(-c3cnc(N4CCOCC4)nc3)cc2NC(=O)c2c[nH]c(=O)cc2C(F)F)CC1` [Example 20, 4-(difluoromethyl)-N-(4-fluoro-2-(4-methylpiperazin-1-yl)-5-(2-morpholinopyrimidin-5-yl)phenyl)-6-oxo-1,6-dihydropyridine-3-carboxamide], for which the IC50 was 0.604 µM.

For `CN(C)C1CCN(c2cc(F)c(-c3cnc(N4CCOCC4)nc3)cc2NC(=O)c2c[nH]c(=O)cc2C(F)(F)F)C1` (stereo not shown) [Example 21, N-[2-[3-(dimethylamino)pyrrolidin-1-yl]-4-fluoro-5-(2-morpholin-4-ylpyrimidin-5-yl)phenyl]-6-oxo-4-(trifluoromethyl)-1H-pyridine-3-carboxamide], the IC50 is 0.271 µM.

On to `CN1CCN(c2cc(F)c(C3=CCOCC3)cc2NC(=O)c2c[nH]c(=O)cc2C(F)(F)F)CC1` [Example 22, N-[5-(3,6-dihydro-2H-pyran-4-yl)-4-fluoro-2-(4-methylpiperazin-1-yl)phenyl]-6-oxo-4-(trifluoromethyl)-1H-pyridine-3-carboxamide], for which the IC50 is 5.27 µM.

In the case of `CN1CCN(c2cc(F)c(C3=CCNCC3)cc2NC(=O)c2c[nH]c(=O)cc2C(F)(F)F)CC1` [Example 23, N-[4-fluoro-2-(4-methylpiperazin-1-yl)-5-(1,2,3,6-tetrahydropyridin-4-yl)phenyl]-6-oxo-4-(trifluoromethyl)-1H-pyridine-3-carboxamide], the IC50 was more than 10 µM.

Regarding `CN1CCN(c2cc(F)ccc2NC(=O)c2c[nH]c(=O)cc2C(F)(F)F)CC1` [Example 24, N-[4-fluoro-2-(4-methylpiperazin-1-yl)phenyl]-6-oxo-4-(trifluoromethyl)-1H-pyridine-3-carboxamide], the concentration for half-maximal inhibition (IC50) is more than 10 µM.

Regarding `Cc1cc(C(=O)Nc2cc(-c3cnc(N4CCOCC4)nc3)c(F)cc2N2C[C@@H](C)N(C)[C@@H](C)C2)ccc1F` [Example 25, 4-fluoro-N-[4-fluoro-5-(2-morpholin-4-ylpyrimidin-5-yl)-2-[(3R,5S)-3,4,5-trimethylpiperazin-1-yl]phenyl]-3-methylbenzamide], the 50% inhibitory concentration (IC50) was more than 10 µM.

For the compound `C[C@@H]1CN(c2cc(F)ccc2NC(=O)c2c[nH]c(=O)cc2C(F)(F)F)C[C@H](C)N1C` [Example 26, N-[4-fluoro-2-[(3R,5S)-3,4,5-trimethylpiperazin-1-yl]phenyl]-6-oxo-4-(trifluoromethyl)-1H-pyridine-3-carboxamide], the 50% inhibitory concentration (IC50) is more than 10 µM.

Regarding `Cc1cc(C(=O)Nc2cc(-c3cnc(N4CCOCC4)nc3)c(F)cc2N2C[C@@H](C)N(C)[C@@H](C)C2)cc(C)c1F` [Example 28, 4-fluoro-N-[4-fluoro-5-(2-morpholin-4-ylpyrimidin-5-yl)-2-[(3R,5S)-3,4,5-trimethylpiperazin-1-yl]phenyl]-3,5-dimethylbenzamide], the half-maximal inhibitory concentration (IC50) stood at 2.76 µM.

On to `C[C@@H]1CN(c2cc(F)c(-c3ccc(N4CCOCC4)cc3)cc2NC(=O)c2c[nH]c(=O)cc2C(F)(F)F)C[C@H](C)N1C` [Example 29, N-[4-fluoro-5-(4-morpholin-4-ylphenyl)-2-[(3R,5S)-3,4,5-trimethylpiperazin-1-yl]phenyl]-6-oxo-4-(trifluoromethyl)-1H-pyridine-3-carboxamide], for which the IC50 was 0.045 µM.

On to `CN1CCN(c2cc(F)c(-c3ccc(OC4CCOCC4)nc3)cc2NC(=O)c2c[nH]c(=O)cc2C(F)(F)F)CC1` [Example 30, N-[4-fluoro-2-(4-methylpiperazin-1-yl)-5-[6-(oxan-4-yloxy)pyridin-3-yl]phenyl]-6-oxo-4-(trifluoromethyl)-1H-pyridine-3-carboxamide], for which the IC50 stood at 0.21 µM.

Take `C[C@@H]1CN(c2cc(F)c(-c3cnc(C#N)nc3)cc2NC(=O)c2c[nH]c(=O)cc2C(F)(F)F)C[C@H](C)N1C` [Example 31, N-[5-(2-cyanopyrimidin-5-yl)-4-fluoro-2-[(3S,5R)-3,4,5-trimethylpiperazin-1-yl]phenyl]-6-oxo-4-(trifluoromethyl)-1H-pyridine-3-carboxamide]: the 50% inhibitory concentration (IC50) was determined as 0.571 µM.

On to `C[C@@H]1CN(c2cc(F)c(-c3ccc(N4CCOCC4)nc3)cc2NC(=O)c2c[nH]c(=O)cc2C(F)(F)F)C[C@H](C)N1C` [Example 32, N-[4-fluoro-5-(6-morpholin-4-ylpyridin-3-yl)-2-[(3S,5R)-3,4,5-trimethylpiperazin-1-yl]phenyl]-6-oxo-4-(trifluoromethyl)-1H-pyridine-3-carboxamide], for which the IC50 was 0.067 µM.

Consider `Cc1ncc(-c2cc(NC(=O)c3c[nH]c(=O)cc3C(F)(F)F)c(N3C[C@@H](C)N(C)[C@@H](C)C3)cc2F)cn1` [Example 33, N-[4-fluoro-5-(2-methylpyrimidin-5-yl)-2-[(3S,5R)-3,4,5-trimethylpiperazin-1-yl]phenyl]-6-oxo-4-(trifluoromethyl)-1H-pyridine-3-carboxamide], for which the half-maximal inhibitory concentration (IC50) came out at 0.072 µM.

For `C[C@@H]1CN(c2cc(F)c(-c3cnc(N4CCOCC4)nc3)cc2NC(=O)c2c[nH]c(=O)cc2C(F)F)C[C@H](C)N1C` [Example 34, 4-(difluoromethyl)-N-[4-fluoro-5-(2-morpholin-4-ylpyrimidin-5-yl)-2-[(3S,5R)-3,4,5-trimethylpiperazin-1-yl]phenyl]-6-oxo-1H-pyridine-3-carboxamide], the IC50 came out at 0.038 µM.

In the case of `C[C@@H]1CN(c2cc(F)c(-c3cccnc3)cc2NC(=O)c2c[nH]c(=O)cc2C(F)(F)F)C[C@H](C)N1C` [Example 35, N-[4-fluoro-5-pyridin-3-yl-2-[(3R,5S)-3,4,5-trimethylpiperazin-1-yl]phenyl]-6-oxo-4-(trifluoromethyl)-1H-pyridine-3-carboxamide], the IC50 was determined as 0.669 µM.

In the case of `C[C@@H]1CN(c2cc(F)c(-c3ccncc3)cc2NC(=O)c2c[nH]c(=O)cc2C(F)(F)F)C[C@H](C)N1C` [Example 36, N-[4-fluoro-5-pyridin-4-yl-2-[(3R,5S)-3,4,5-trimethylpiperazin-1-yl]phenyl]-6-oxo-4-(trifluoromethyl)-1H-pyridine-3-carboxamide], the IC50 came out at 0.85 µM.

With `CN(C)[C@@H]1CCN(c2cc(F)c(-c3cnc(N4CCOCC4)nc3)cc2NC(=O)c2c[nH]c(=O)cc2C(F)(F)F)C1` [Example 37, N-[2-[(3R)-3-(dimethylamino)pyrrolidin-1-yl]-4-fluoro-5-(2-morpholin-4-ylpyrimidin-5-yl)phenyl]-6-oxo-4-(trifluoromethyl)-1H-pyridine-3-carboxamide], the IC50 is 0.054 µM.

On to `CN(C)[C@H]1CCN(c2cc(F)c(-c3cnc(N4CCOCC4)nc3)cc2NC(=O)c2c[nH]c(=O)cc2C(F)(F)F)C1` [Example 38, N-[2-[(3S)-3-(dimethylamino)pyrrolidin-1-yl]-4-fluoro-5-(2-morpholin-4-ylpyrimidin-5-yl)phenyl]-6-oxo-4-(trifluoromethyl)-1H-pyridine-3-carboxamide], for which the IC50 turned out to be 4.07 µM.

As for `CN1CCN(c2cc(F)c(-c3cnc(N(C)C)nc3)cc2NC(=O)c2c[nH]c(=O)cc2C(F)(F)F)CC1` [Example 40, N-[5-[2-(dimethylamino)pyrimidin-5-yl]-4-fluoro-2-(4-methylpiperazin-1-yl)phenyl]-6-oxo-4-(trifluoromethyl)-1H-pyridine-3-carboxamide], the IC50 was more than 10 µM.

On to `CN1CCN(c2cc(F)c(-c3ccc(CN4CCOCC4)nc3)cc2NC(=O)c2c[nH]c(=O)cc2C(F)(F)F)CC1` [Example 41, N-[4-fluoro-2-(4-methylpiperazin-1-yl)-5-[6-(morpholin-4-ylmethyl)pyridin-3-yl]phenyl]-6-oxo-4-(trifluoromethyl)-1H-pyridine-3-carboxamide], for which the concentration for half-maximal inhibition (IC50) was determined as 0.213 µM.

On to `CC1CN(c2cc(F)c(-c3cccc(CN4CCOCC4)c3)cc2NC(=O)c2c[nH]c(=O)cc2C(F)(F)F)CCN1C` (stereo not shown) [Example 45, N-(4-(3,4-dimethylpiperazin-1-yl)-6-fluoro-3′-(morpholinomethyl)-[1,1′-biphenyl]-3-yl)-6-oxo-4-(trifluoromethyl)-1,6-dihydropyridine-3-carboxamide], for which the concentration for half-maximal inhibition (IC50) worked out at 0.491 µM.

On to `CN1CCN(c2cc(F)c(-c3ccnc(N4CCOCC4)c3)cc2NC(=O)c2c[nH]c(=O)cc2C(F)(F)F)CC1` [Example 46, N-(4-fluoro-2-(4-methylpiperazin-1-yl)-5-(2-morpholinopyridin-4-yl)phenyl)-6-oxo-4-(trifluoromethyl)-1,6-dihydropyridine-3-carboxamide], for which the IC50 was 2.9 µM.

As to `CN1CCN(c2cc(F)c(-c3cncc(CNC4CCOCC4)c3)cc2NC(=O)c2c[nH]c(=O)cc2C(F)(F)F)CC1` [Example 48, N-(4-fluoro-2-(4-methylpiperazin-1-yl)-5-(5-(((tetrahydro-2H-pyran-4-yl)amino)methyl)pyridin-3-yl)phenyl)-6-oxo-4-(trifluoromethyl)-1,6-dihydropyridine-3-carboxmaide], the concentration for half-maximal inhibition (IC50) was more than 10 µM.

Turning to `CN1CCN(c2cc(F)c(-c3cncc(CN[C@@H]4CCOC4)c3)cc2NC(=O)c2c[nH]c(=O)cc2C(F)(F)F)CC1` [Example 49, (R)—N-(4-fluoro-2-(4-methylpiperazin-1-yl)-5-(5-(((tetrahydrofuran-3-yl)amino)methyl)pyridin-3-yl)phenyl)-6-oxo-4-(trifluoromethyl)-1,6-dihydropyridine-3-carboxamide], the IC50 was more than 10 µM.

Consider `C[C@@H]1CN(c2cc(F)c(-c3cccc(CN4CCOCC4)c3)cc2NC(=O)c2c[nH]c(=O)cc2C(F)(F)F)CCN1C` [Example 50, (R)—N-(4-(3,4-dimethylpiperazin-1-yl)-6-fluoro-3′-(morpholinomethyl)-[1,1′-biphenyl]-3-yl)-6-oxo-4-(trifluoromethyl)-1,6-dihydropyridine-3-carboxamide], for which the concentration for half-maximal inhibition (IC50) was determined as 2.9 µM.
